Laboratory results from US20250129021A1, “SMALL MOLECULE PROTEIN SYNTHESIS MODULATORS” (Interdict Bio, Inc., priority 2023, published 2025).
pIC50: −log10 of the molar value.

What was measured:
Assay type in all cases: biochemical
Settings in all cases: HeLa S3 lysate, sfGFP/mCherry ratio, 2 hrs at 30° C.
KRAS G12D = test: In vitro transcription-translation (IVTT) assay, KRAS G12D reporter
Description: (§1) All reporter constructs have been cloned into the pT7CFE1-CHis plasmid (ThermoFisher #88860) using Gibson assembly procedures (NEB #E2611L). The parental pT7CFE1-CHis plasmid contains an EMCV IRES at the 5′UTR for translation initiation, a multiple-cloning site (MCS) for gene insertion, an optional C-terminal His-epitope tag, and polyA sequence in the 3′UTR to regulate mRNA stability. All reporters are designed to be inserted at the MCS to include a red fluorescent protein (mCherry), P2A self-cleaving peptide which releases the preceding mCherry protein product, and a fusion open reading frame containing a 3×FLAG epitope, a peptide sequence of interest (TEST), and green fluorescent protein (sfGFP).
(§2) Construct Plasmid Preparation: All plasmids are isolated from MACH1 cells (ThermoFisher) grown overnight in ampicillin-containing luria broth, and purified using ZymoPure Express Plasmid Midiprep Kit (Zymo Research). Constructs are sequenced verified and diluted to a working concentration of 110 ng/μL.
(§3) HeLa S3 Lysate Preparation: HeLa S3 cell pellets are acquired from Ipracell/Ipratech (Belgium) and shipped as 4 mL frozen cell pellets on dry ice for storage at −80° C. until use. The procedure for lysate preparation is as follows. Prepare 1× Lysis Buffer, cold and stored on ice:
(§4) Each preparation takes 8 cell pellets (4 ml packed volume each, approximately 1.0×10^9 cells per pellet). Thaw cell pellets from −80° C. on ice for 90 mins. Lay pellets horizontally on top of the ice and rotate every 30 mins to ensure even thawing. Once thawed, add 4 mL of cold lysis buffer to each pellet, and using a serological pipet, gently pipet up and down to break up clumps. Incubate resuspended cells in ice for an additional 30 mins (plunged into ice). During 30 min incubation, rinse and RNase-zap (Ambion) glass dounces (use loose pestle “A”), gently dry and place on ice until needed. Prepare RNase-free Eppendorf tubes for spinning and for batch storage. Add batch labels to 1.5-1.7 mL RNase-free microcentrifuge tubes (labeling scheme below). Each batch will have an extra 1.5-1.7 mL RNase-free microcentrifuge tube for 40 μL of lysate, label the top of this tube (labeling scheme below). After 30 min incubation, transfer all 8 mL of cell pellet to dounce. Cell lysis is complete after douncing 100 times. Aliquot cell lysis into 1.5-1.7 mL temporary-microcentrifuge tubes. Place tubes in centrifuge with “fins” out, and spin at 1,200×g for 5 mins. After the first spin use a 1 mL pipet to resuspend each tube and repeat spin. This acts as an additional lysis step, is more vigorous and increases lysate yield. During second spin get liquid N2 and a fresh conical tube on ice. After spin is complete, transfer supernatant (lysate) from microcentrifuge tubes into the 50 mL conical tube and keep on ice. Repeat steps 10-14 for all other cell pellets until completed. Once all cell lysate has been transferred to the 50 mL conical tube pipet to mix so the solution is homogenous. Transfer 1 mL of lysate into batch-labeled microcentrifuge tubes and flash freeze in liquid nitrogen. Be sure to pipet up and down to mix throughout transfer step. Place all tubes in the […] for long-term storage.
(§5) In vitro transcription-translation assay setup: Each assay includes a master mix containing lysate and shared components, a 96-well plate containing compound titrations for testing, a 96-well DNA plate with reporter constructs to be tested, 96-well skirted PCR plates, and 96-well flat-bottom, black, fluorescent assay plates. […]

MYC = test: In vitro transcription-translation (IVTT) assay, MYC reporter
Outline: (§6)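 Reporter: mCherry, P2A, then 3×FLAG-target peptide-sfGFP fusion, IRES-initiated; HeLa S3 lysate IVTT; cpd dilutions 30 μM−0.1 μM half-log in 100% DMSO (dilution-plate conc); DNA added last; 2 h, 30° C; PBS quench.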

ALK = test: In vitro transcription-translation (IVTT) assay, ALK reporter
Description: as §1, §2, §3, §4, §5

MCL-1 = test: In vitro transcription-translation (IVTT) assay, MCL-1 reporter
Outline: as §6

CCND1 = test: In vitro transcription-translation (IVTT) assay, CCND1 reporter
Outline: as §6

Row | Compound | pIC50 (KRAS G12D) | pIC50 (MYC) | pIC50 (ALK) | pIC50 (MCL-1) | pIC50 (CCND1)
1 | COc1ccc(CC2NCC(O)[C@H]2OC(=O)NCCN(Cc2ccccn2)Cc2ccccn2)cc1 (stereo in doubt) [V187537, (2S,3S,4R)-4-hydroxy-2-[(4-methoxyphenyl)methyl]pyrrolidin-3-yl N-{2-[bis(pyridin-2-ylmethyl)amino]ethyl}carbamate; trifluoroacetic acid] | 4.52 to 4.70 | > 5.00 | > 5.00 |  | 
2 | COc1ccc(C[C@H]2NC[C@H](O)[C@H]2OC(=O)NC2CC(F)(F)C2)cc1 [V187191, (2R,3S,4S)-4-hydroxy-2-[(4-methoxyphenyl)methyl]pyrrolidin-3-yl N-(3,3-difluorocyclobutyl)carbamate; trifluoroacetic acid] | < 4.52 | 4.52 to 4.70 | > 5.00 |  | 
3 | COc1ccc(C[C@H]2NC[C@H](O)[C@H]2OC(=O)NCC[C@H]2CN(Cc3ccccc3)CCN2Cc2ccccc2)cc1 [V187315] | < 4.52 | < 4.52 | < 4.52 |  | 
4 | COc1ccc(C[C@H]2NC[C@H](O)[C@H]2OC(=O)NCC[C@@H]2NC(=O)C3(CCNCC3)NC2=O)cc1 [V187327, (2R,3S,4S)-4-hydroxy-2-[(4-methoxyphenyl)methyl]pyrrolidin-3-yl N-{2-[(3S)-2,5-dioxo-1,4,9-triazaspiro[5.5]undecan-3-yl]ethyl}carbamate; trifluoroacetic acid] | < 4.52 | < 4.52 | > 5.00 |  | 
5 | COc1ccc(C[C@H]2NC[C@H](O)[C@H]2OC(=O)NCC[C@H]2CN(CC3CC3)CCN2Cc2ccccc2)cc1 [V187344] | < 4.52 | < 4.52 | < 4.52 |  | 
6 | COc1ccc(C[C@H]2NC[C@H](O)[C@H]2OC(=O)NCC[C@H]2CN(CC3CCCO3)CCN2Cc2ccccc2)cc1 (stereo partly drawn) [V187345, (2R,3S,4S)-4-hydroxy-2-[(4-methoxyphenyl)methyl]pyrrolidin-3-yl N-{2-[(2S)-1-benzyl-4-(oxolan-2-ylmethyl)piperazin-2-yl]ethyl}carbamate] | < 4.52 | < 4.52 | < 4.52 |  | 
7 | COc1ccc(C[C@H]2NC[C@H](O)[C@H]2OC(=O)NC[C@@H]2NC(=O)CNC2=O)cc1 [V187381, (2R,3S,4S)-4-hydroxy-2-[(4-methoxyphenyl)methyl]pyrrolidin-3-yl N-{[(2S)-3,6-dioxopiperazin-2-yl]methyl}carbamate] | < 4.52 | < 4.52 | < 4.52 |  | 
8 | CCN(CC)CCCCNC(=O)O[C@@H]1[C@@H](O)CN[C@@H]1Cc1ccc(OC)cc1 [V187385, (2R,3S,4S)-4-hydroxy-2-[(4-methoxyphenyl)methyl]pyrrolidin-3-yl N-[4-(diethylamino)butyl]carbamate; trifluoroacetic acid] | 4.52 to 4.70 | 4.70 to 5.00 | > 5.00 |  | 
9 | CCCCN(CCCC)CCCNC(=O)O[C@@H]1[C@@H](O)CN[C@@H]1Cc1ccc(OC)cc1 [V187386, (2R,3S,4S)-4-hydroxy-2-[(4-methoxyphenyl)methyl]pyrrolidin-3-yl N-[3-(dibutylamino)propyl]carbamate] | < 4.52 | < 4.52 | < 4.52 |  | 
10 | COc1ccc(C[C@H]2NC[C@H](O)[C@H]2OC(=O)NC[C@@H]2CCCO2)cc1 [V187521, (2R,3S,4S)-4-hydroxy-2-[(4-methoxyphenyl)methyl]pyrrolidin-3-yl N-[(2S)-oxolan-2-ylmethyl]carbamate; trifluoroacetic acid] | 4.70 to 5.00 | > 5.00 |  | > 5.00 | > 5.00
11 | COc1ccc(C[C@H]2NC[C@H](O)[C@H]2OC(=O)NCCN2CC(O)(CN)C2)cc1 [V187581, (2R,3S,4S)-4-hydroxy-2-[(4-methoxyphenyl)methyl]pyrrolidin-3-yl N-{2-[3-(aminomethyl)-3-hydroxyazetidin-1-yl]ethyl}carbamate; trifluoroacetic acid] | < 4.52 | 4.52 to 4.70 |  |  | 
12 | COc1ccc(C[C@H]2NC[C@H](O)[C@H]2OC(=O)Nc2nnc(CO)s2)cc1 [V187598, (2R,3S,4S)-4-hydroxy-2-[(4-methoxyphenyl)methyl]pyrrolidin-3-yl N-[5-(hydroxymethyl)-1,3,4-thiadiazol-2-yl]carbamate; trifluoroacetic acid] | > 5.00 |  | > 5.00 |  | 
13 | COc1ccc(C[C@H]2NC[C@H](O)[C@H]2OC(=O)NNCc2ccno2)cc1 [V187668, 1-{[(2R,3S,4S)-4-hydroxy-2-[(4-methoxyphenyl)methyl]pyrrolidin-3-yl]oxy}-N′-(1,2-oxazol-5-ylmethyl)formohydrazide; trifluoroacetic acid] | 4.70 to 5.00 |  | > 5.00 |  | 
14 | CCC(=O)NNC(=O)O[C@@H]1[C@@H](O)CN[C@@H]1Cc1ccc(OC)cc1 [V187739, 1-{[(2R,3S,4S)-4-hydroxy-2-[(4-methoxyphenyl)methyl]pyrrolidin-3-yl]oxy}-N′-propanoylformohydrazide; trifluoroacetic acid] | 4.70 to 5.00 |  | > 5.00 |  | 

Second part, led by results:

Row | pIC50 (KRAS G12D) | pIC50 (MYC) | pIC50 (ALK) | Compound | pIC50 (MCL-1) | pIC50 (CCND1)
15 | < 4.52 | < 4.52 | < 4.52 | CCCCN(CCCC)CCNC(=O)O[C@@H]1[C@@H](O)CN[C@@H]1Cc1ccc(OC)cc1 [V187382, (2R,3S,4S)-4-hydroxy-2-[(4-methoxyphenyl)methyl]pyrrolidin-3-yl N-[2-(dibutylamino)ethyl]carbamate] |  | 
16 | < 4.52 |  | > 5.00 | COc1ccc(C[C@H]2NC[C@H](O)[C@H]2OC(=O)NCCOCCN(C)C)cc1 [V187383, (2R,3S,4S)-4-hydroxy-2-[(4-methoxyphenyl)methyl]pyrrolidin-3-yl N-{2-[2-(dimethylamino)ethoxy]ethyl}carbamate] |  | 
17 | 4.52 to 4.70 | 4.70 to 5.00 |  | COc1ccc(C[C@H]2NC[C@H](O)[C@H]2OC(=O)NCCN2CC(O)(C#N)C2)cc1 [V187567, (2R,3S,4S)-4-hydroxy-2-[(4-methoxyphenyl)methyl]pyrrolidin-3-yl N-[2-(3-cyano-3-hydroxyazetidin-1-yl)ethyl]carbamate] |  | 4.52 to 4.70
18 | 4.70 to 5.00 |  | > 5.00 | COc1ccc(C[C@H]2NC[C@H](O)[C@H]2OC(=O)NCCO)cc1 [V187584, (2R,3S,4S)-4-hydroxy-2-[(4-methoxyphenyl)methyl]pyrrolidin-3-yl N-(2-hydroxyethyl)carbamate] |  | 
19 | 4.52 to 4.70 | 4.70 to 5.00 |  | COc1ccc(C[C@H]2NC[C@H](O)[C@H]2OC(=O)NCCNCCn2ccnc2)cc1 [V187637, (2R,3S,4S)-4-hydroxy-2-[(4-methoxyphenyl)methyl]pyrrolidin-3-yl N-(2-{[2-(imidazol-1-yl)ethyl]amino}ethyl)carbamate] |  | 
20 | < 4.52 | < 4.52 |  | COc1ccc(C[C@H]2NC[C@H](O)[C@H]2OC(=O)NCCNCCOC(C)C)cc1 [V187640, (2R,3S,4S)-4-hydroxy-2-[(4-methoxyphenyl)methyl]pyrrolidin-3-yl N-{2-[(2-isopropoxyethyl)amino]ethyl}carbamate; trifluoroacetic acid] |  | 
21 | < 4.52 |  | 4.52 to 4.70 | COc1ccc(C[C@H]2NC[C@H](O)[C@H]2OC(=O)NCCN2CCC3(C2)CC(F)(F)C3)cc1 [V187643, (2R,3S,4S)-4-hydroxy-2-[(4-methoxyphenyl)methyl]pyrrolidin-3-yl N-(2-{2,2-difluoro-6-azaspiro[3.4]octan-6-yl}ethyl)carbamate] |  | 
22 | < 4.52 |  | < 4.52 | COc1ccc(C[C@H]2NC[C@H](O)[C@H]2OC(=O)Nc2ccccc2)cc1 [V187666, (2R,3S,4S)-4-hydroxy-2-[(4-methoxyphenyl)methyl]pyrrolidin-3-yl N-phenylcarbamate] |  | 
